Here are results for one compound from patent US20150126465A1, “PROCESS FOR PRODUCING DERIVATIVES OF PYROSTEGIA VENUSTA, DERIVATIVES OF PYROSTEGIA VENUSTA, PHARMACEUTICAL COMPOSITIONS AND ITS USES” (priority 2011, published 2015).

The subject of the test is Candida tropicalis USP 1658. The test can be described thus: MIC by microdilution (CLSI M27-A2). In kind it is cell-based. Conditions: Candida tropicalis, USP1658; Table 12, C. tropicalis USP 1658, 48 h, 35° C.; read-out: MIC. For orientation: Dilution methods test growth across graded concentrations, often in twofold steps.

Usually MIC stands for the smallest concentration in the dilution series that meets the test's criterion for growth inhibition. Consider `Clc1ccc(COC(Cn2ccnc2)c2ccc(Cl)cc2Cl)c(Cl)c1` (stereo not shown) [Miconazol], for which the MIC is under 2 µg/mL.
